The target in this test is T1, histamine H3 receptor (Homo sapiens, UniProt Q9Y5N1).
T1 construct: expressed in transfected cells; host or cells: CHO K1 cells carrying pSwitch, transfected with pGeneH3 and induced with mifepristone; clone 3H3; membrane preparation
Description: Histamine H3 functional antagonist assay ([35S]GTPγS SPA on membranes). The format is biochemical. How it is done:
A membrane preparation containing histamine H3 receptors may be prepared in accordance with the following procedures:
Ligated DNA was transformed into competent DH5α E. coli host bacterial cells and plated onto Luria Broth (LB) agar containing Zeocin™ (an antibiotic which allows the selection of cells expressing the sh ble gene which is present on pGene and pSwitch) at 50 μg ml^−1. Colonies containing the religated plasmid were identified by restriction analysis. DNA for transfection into mammalian cells was prepared from 250 ml cultures of the host bacterium containing the pGeneH3 plasmid and isolated using a DNA preparation kit (Qiagen Midi-Prep) as per manufacturers guidelines (Qiagen).
CHO K1 cells previously transfected with the pSwitch regulatory plasmid (InVitrogen) were seeded at 2×10e6 cells per T75 flask in Complete Medium, containing Hams F12 (GIBCOBRL, Life Technologies) medium supplemented with 10% v/v dialysed foetal bovine serum, L-glutamine, and hygromycin (100 μg ml^−1), 24 hours prior to use. Plasmid DNA was transfected into the cells using Lipofectamine plus according to the manufacturers guidelines (InVitrogen). 48 hours post transfection cells were placed into complete medium supplemented with 500 μg ml^−1 Zeocin™.
10-14 days post selection 10 nM Mifepristone (InVitrogen), was added to the culture medium to induce the expression of the receptor.
Approximately 1×10e7 cells were examined for receptor expression by staining with a rabbit polyclonal antibody, 4a, raised against the N-terminal domain of the histamine H3 receptor, incubated on ice for 60 minutes, followed by two washes in sorting medium.
Following two further washes with Sorting Medium, cells were filtered through a 50 μm Filcon™ (BD Biosciences) and then analysed on a FACS Vantage SE Flow Cytometer fitted with an Automatic Cell Deposition Unit. […] Positively stained cells were sorted as single cells into 96-well plates, containing Complete Medium containing 500 μg ml^−1 Zeocin™ and allowed to expand before reanalysis for receptor expression via antibody and ligand binding studies.
All steps of the protocol are carried out at 4° C. and with pre-cooled reagents. The cell pellet is resuspended in 10 volumes of buffer A2 containing 50 mM N-2-hydroxyethylpiperazine-N′-2-ethanesulfonic acid (HEPES) (pH 7.40) supplemented with […] leupeptin (acetyl-leucyl-leucyl-arginal; Sigma L2884), 25 μg/ml bacitracin (Sigma B0125), 1 mM ethylenediamine tetra-acetic acid (EDTA), 1 mM phenylmethylsulfonyl fluoride (PMSF) and 2×10e-6M pepstain A (Sigma). The cells are then homogenised by 2×15 second bursts in a 1 litre glass Waring blender, followed by centrifugation at 500 g for 20 minutes. The supernatant is then spun at 48,000 g for 30 minutes. The pellet is resuspended in 4 volumes of buffer A2 by vortexing for 5 seconds, followed by homogenisation in a Dounce homogeniser (10-15 strokes). At this point the preparation is aliquoted into polypropylene tubes and stored at −70° C. […]
The plate is then incubated on a shaker at room temperature for 30 minutes followed by centrifugation for 5 minutes at 1500 rpm. The plate is read between 3 and 6 hours after completion of centrifuge run in a Wallac Microbeta counter on a 1 minute normalised tritium count protocol. Data is analysed using a 4-parameter logistic equation. Basal activity used as minimum i.e. histamine not added to well.
(In general: GTPγS is a poorly hydrolysed GTP analogue; its binding reports G protein activation.)

Setting [1] is: membranes of CHO K1 clone 3H3 expressing human histamine H3, histamine 0.3 μM, guanosine 5'[γ35-S]thiotriphosphate 0.38 nM, read-out: pKb (converted).

Structures can show the parent of a compound that is named as a salt. Where two headings read alike, the source gives them in different places. Some results are limits rather than exact numbers.

T1 sequence (Q9Y5N1 whole entry): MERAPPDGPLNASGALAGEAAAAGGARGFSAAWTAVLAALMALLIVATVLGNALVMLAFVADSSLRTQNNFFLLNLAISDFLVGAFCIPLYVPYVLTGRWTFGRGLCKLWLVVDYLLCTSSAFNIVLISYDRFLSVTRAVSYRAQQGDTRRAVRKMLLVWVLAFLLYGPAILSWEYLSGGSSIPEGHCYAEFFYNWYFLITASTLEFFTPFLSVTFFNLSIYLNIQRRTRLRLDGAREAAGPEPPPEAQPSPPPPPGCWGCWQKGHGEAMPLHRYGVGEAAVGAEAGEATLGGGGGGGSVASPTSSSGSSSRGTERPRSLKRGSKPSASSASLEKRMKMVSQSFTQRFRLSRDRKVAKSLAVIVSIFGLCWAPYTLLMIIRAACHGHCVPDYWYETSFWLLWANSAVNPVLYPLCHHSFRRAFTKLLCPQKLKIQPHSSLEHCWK

Turning to `O=C(c1ccc(OCCCN2CCCCC2)cc1)N1CCN(c2ccccc2)CC1` [Example E1, N-[4-(3-Piperidin-1-ylpropoxy)benzoyl]-4-phenylpiperazine dihydrochloride], the Kb under setting [1] is < 3.16 nM.

On to `O=C(c1ccc(OCCCN2CCCCC2)cc1)N1CCN(C(=O)C2CCCCC2)CC1` [Example E57, 1-[4-(3-Piperidin-1-ylpropoxy)benzoyl]-4-(1-cyclohexanecarbonyl)-piperazine hydrochloride], for which the Kb under setting [1] was < 3.16 nM.

As for `O=C(c1ccc(OCCCN2CCCCC2)cc1)N1CCN(C(=O)c2cccs2)CC1` [Example E59, 1-[4-(3-Piperidin-1-ylpropoxy)benzoyl]-4-(thiophen-2-carbonyl)-piperazine Hydrochloride], the Kb under setting [1] is < 3.16 nM.

For the compound `O=C(c1ccc(OCCCN2CCCCC2)cc1)N1CCN(C(=O)N2CCCC2)CC1` [Example E88, 1-[4-(3-Piperidin-1-ylpropoxy)benzoyl]-4-(pyrrolidine-1-carbonyl)-piperazine Hydrochloride], under setting [1], the Kb was < 3.16 nM.

In the case of `O=C(c1ccc(OCCCN2CCCCC2)cc1)N1CCN(C(=O)C2CCCCCC2)CC1` [Example E89, 1-[4-(3-Piperidin-1-ylpropoxy)benzoyl]-4-(cycloheptanecarbonyl)-piperazine Hydrochloride], the Kb was < 3.16 nM.

Take `C[C@@H]1CN(C(=O)c2ccc(OCCCN3CCCCC3)cc2)C[C@H](C)N1C(=O)c1ccccc1` [Example E100]: the Kb under setting [1] was < 3.16 nM.

On to `O=C(c1ccc(OCCCN2CCCCC2)cc1)N1CCCCC1` [Example E149, N-[4-(3-Piperidin-1-ylpropoxy)benzoyl]piperidine Hydrochloride], for which the Kb under setting [1] was < 3.16 nM.

Regarding `O=C(c1ccc(OCCCN2CCCCC2)cc1C(F)(F)F)N1CCCCC1` [Example E155, N-[2-Trifluoromethyl-4-(3-Piperidin-1-ylpropoxy)benzoyl]piperidine Hydrochloride], the Kb under setting [1] was < 3.16 nM.

Turning to `O=C(N[C@H]1CCN(C(=O)c2ccc(OCCCN3CCCCC3)cc2)C1)c1ccccc1` [Example E156, (S)-N-[4-(3-Piperidin-1-ylpropoxy)benzoyl]-3-benzamidopyrrolidine Dihydrochloride], under setting [1], the Kb is < 3.16 nM.

For `O=C(N[C@H]1CCN(C(=O)c2ccc(OCCCN3CCCCC3)cc2)C1)c1cccc2ccccc12` [Example E158, (S)-N-[4-(3-Piperidin-1-ylpropoxy)benzoyl]-3-(naphthalene-1-carboxamidopyrrolidinedihydrochloride], the Kb under setting [1] is < 3.16 nM.

On to `O=C(c1ccc(OCCCN2CCCCC2)cc1)N1CCC2(CC1)CN(c1ccccc1)C(=O)CO2` [Example E159, 4-Phenyl-9-[4-(3-piperidin-1-ylpropoxy)benzoyl]-1-oxa-4,9-diazaspiro-[5,5]-undecan-3-one hydrochloride], for which the Kb under setting [1] is < 3.16 nM.

Regarding `O=C1NC2(CCN(C(=O)c3ccc(OCCCN4CCCCC4)cc3)CC2)CN1Cc1ccccc1` [Example E160, 3-Benzyl-8-[4-(3-piperidin-1-ylpropoxy)benzoyl]-1,3,8-triaza-spiro[4.5]-decan-2-one], the Kb under setting [1] was < 3.16 nM.

Source of the values: US20060052597A1, “Aryloxyalkylamine derivatives as h3 receptor ligands” (priority 2002, published 2006).
